Measured values: PMC8074941, “Synthesis of cyclotetrapeptide analogues of c-PLAI and evaluation of their antimicrobial properties” (Royal Society Open Science, 2021)
In brackets after ≈: the same amount, converted by molar mass. Where two headings read alike, the source gives them in different places. Where a SMILES comes first, the peptide text is derived from it.

Assays:
[1] = test system: B. cereus ATCC 11778; test: microbe, parasite or virus in culture
Experimental: (§1) Tools and materials were sterilized in an autoclave for 15 min at 121°C. Bacterial culture was grown in agar media (Mueller Hinton agar) by picking some bacterial colony using an inoculating loop, followed by incubation at 37°C for 24 h. Bacterial culture was then suspended in liquid media (Mueller Hinton Broth). The suspended bacterial culture was then incubated at 37°C for 24 h and standardized equal to 0.5 Mc Farland (2 × 10^8 CFU ml^−1). The culture was diluted into the concentration of 5 × 10^5 CFU ml^−1.
(§2) Six tetrapeptides and six cyclotetrapeptides were dissolved in DMSO 2% with a concentration of 1 µg mL^−1. Each solution was dissolved gradually. Subsequently, 12 sample solutions, ciprofloxacin, nystatin, ketoconazole and DMSO 2% were incubated on a 96-well microplate at 37°C for 18 h. The result was interpreted using a spectrophotometer, with a wavelength of 600 nm. MIC was measured as the percentage of microbial inhibition and cell death.

[2] = test system: E. coli ATCC 11229; test: microbe, parasite or virus in culture; settings: for minimum inhibitory concentration (MIC) E. coli ATCC 11229: ATCC 11229, 18 h
Experimental: as §1, §2

[3] = test system: K. pneumonia ATCC 2357; test: microbe, parasite or virus in culture; settings: for minimum inhibitory concentration (MIC) K. pneumonia ATCC 2357: ATCC 2357, 18 h
Experimental: as §1, §2

[4] = test system: S. aureus ATCC 6538; test: microbe, parasite or virus in culture
Experimental: as §1, §2

[5] = test system: C. albicans ATCC 10231
Experimental: (§3) Tools and materials were sterilized in an autoclave for 15 min at 121°C. Fungal culture was grown in agar media (Potato Dextrose agar) by picking some fungal colony using an inoculating loop, followed by incubation at 30°C for 24–48 h. Fungal culture was then suspended in liquid media (Potato Dextrose Broth). The suspended fungal culture was then incubated for 24–48 h at 30°C. The suspended fungal culture was then incubated at 30°C for 24 h and standardized equal to 0.5 Mc Farland (2 × 10^8 CFU ml^−1). The culture was diluted into the concentration of 5 × 10^5 CFU ml^−1.
as §2

[6] = test system: T. mentagrophyte; test: microbe, parasite or virus in culture; settings: 18 h
Experimental: as §3, §2

[7] = head-to-tail lactamisation of linear tetrapeptide (N-terminal Pro amine + C-terminal Ile acid), HATU (2 equiv), DIPEA (3 equiv); settings: the molecule shown is the open-chain precursor; 12-membered ring; CH2Cl2 (with ca. 0.2-0.5% DMF); 0.4 mM; 25.0 °C; 1.5 h
[8] = Mueller Hinton Broth, 5 × 10^5 CFU ml^−1, DMSO 2%, 96-well microplate, 37°C, 18 h, read at 600 nm, single experiment
[9] = Potato Dextrose Broth, 5 × 10^5 CFU ml^−1, DMSO 2%, 96-well microplate, 37°C, 18 h, read at 600 nm, single experiment

SMILES	minimum inhibitory concentration (MIC) B. cereus ATCC 11778 ([1]; ATCC 11778, 18 h)	minimum inhibitory concentration (MIC) E. coli ATCC 11229 [2]	minimum inhibitory concentration (MIC) K. pneumonia ATCC 2357 [3]	minimum inhibitory concentration (MIC) S. aureus ATCC 6538 ([4]; ATCC 6538, 18 h)	minimum inhibitory concentration (MIC) C. albicans ATCC 10231 ([5]; ATCC 10231, 18 h)	minimum inhibitory concentration (MIC) T. mentagrophyte [6]	ring closure, isolated yield [7]	other results
CC[C@H](C)[C@H](NC(=O)[C@H](C)NC(=O)[C@H](CCCCN)NC(=O)[C@@H]1CCCN1)C(=O)O [PKAI] (H-PKAI-OH)	500 µg/mL (≈ 1170 µM)	250 µg/mL (≈ 585 µM)	500 µg/mL (≈ 1170 µM)	500 µg/mL (≈ 1170 µM)	250 µg/mL (≈ 585 µM)	500 µg/mL (≈ 1170 µM)		
CC[C@H](C)[C@@H]1NC(=O)[C@H](Cc2ccccc2)NC(=O)[C@H](CCCCN)NC(=O)[C@@H]2CCCN2C1=O [c-PKFI, cyclo-(pro-lys-phe-ile)] (cyclo(PKFI))		31.25 µg/mL (≈ 64.3 µM)	250 µg/mL (≈ 515 µM)			125 µg/mL (≈ 257 µM)		minimum inhibitory concentration (MIC) B. cereus ATCC 11778 [1, 8]: 62.5 µg/mL (≈ 129 µM); minimum inhibitory concentration (MIC) S. aureus ATCC 6538 [4, 8]: 62.5 µg/mL (≈ 129 µM); minimum inhibitory concentration (MIC) C. albicans ATCC 10231 [5, 9]: 62.50 µg/mL (≈ 129 µM)
CC[C@H](C)[C@H](NC(=O)[C@H](Cc1ccccc1)NC(=O)[C@H](CC(C)C)NC(=O)[C@@H]1CCCN1)C(=O)O [H-Pro-Leu-Phe-Ile-OH]							46%	
CC[C@H](C)[C@H](NC(=O)[C@@H]1CCCN1C(=O)[C@H](CC(C)C)NC(=O)[C@@H]1CCCN1)C(=O)O [H-Pro-Leu-Pro-Ile-OH]							53%	
C[C@@H]1[C@H](O)[C@@H](C)/C=C/C=C/CC/C=C/C=C/C=C/C=C/C(O[C@H]2O[C@H](C)[C@@H](O)[C@H](N)[C@@H]2O)CC2O[C@](O)(CC(O)C(O)CCC(O)CC(O)CC(O)CC(=O)O[C@H]1C)CC(O)C2C(=O)O (stereo partly drawn) [Nystatin, reference compound]								minimum inhibitory concentration (MIC) C. albicans ATCC 10231 [5, 9]: 4.88 µg/mL (≈ 5.27 µM)
CC(=O)N1CCN(c2ccc(OCC3COC(Cn4ccnc4)(c4ccc(Cl)cc4Cl)O3)cc2)CC1 (stereo not drawn) [Ketokonazole, reference compound]								MIC ([6]; Trichophyton mentagrophytes, read-out: minimum inhibitory concentration (MIC) T. mentagrophyte): 312 µg/mL (≈ 588 µM)
CC[C@H](C)[C@H](NC(=O)[C@@H](NC(=O)[C@H](CC(C)C)NC(=O)[C@@H]1CCCN1)C(C)C)C(=O)O [H-Pro-Leu-Val-Ile-OH]							52%	
CC[C@H](C)[C@H](NC(=O)[C@H](C)NC(=O)[C@H](CCCCNC(=O)OC(C)(C)C)NC(=O)[C@@H]1CCCN1)C(=O)O [H-Pro-Lys(Boc)-Ala-Ile-OH]							43%	
CC[C@H](C)[C@H](NC(=O)[C@H](C)NC(=O)[C@H](CC(C)C)NC(=O)[C@@H]1CCCN1)C(=O)O [H-Pro-Leu-Ala-Ile-OH]							70%	
O=C(O)c1cn(C2CC2)c2cc(N3CCNCC3)c(F)cc2c1=O [Ciprofloxacin, reference compound]								MIC ([1]; Bacillus cereus, ATCC11778, 18 h, read-out: minimum inhibitory concentration (MIC) B. cereus ATCC 11778): 0.195 µg/mL (≈ 0.589 µM); MIC ([2]; Escherichia coli, ATCC11229, 18 h, read-out: minimum inhibitory concentration (MIC) E. coli ATCC 11229): 1.56 µg/mL (≈ 4.71 µM); MIC ([3]; Klebsiella pneumoniae, ATCC2357, 18 h, read-out: minimum inhibitory concentration (MIC) K. pneumonia ATCC 2357): 0.391 µg/mL (≈ 1.18 µM); MIC ([4]; Staphylococcus aureus, ATCC6538, 18 h, read-out: minimum inhibitory concentration (MIC) S. aureus ATCC 6538): 0.098 µg/mL (≈ 0.296 µM)
CC[C@H](C)[C@H](NC(=O)[C@H](Cc1ccccc1)NC(=O)[C@H](CCCCNC(=O)OC(C)(C)C)NC(=O)[C@@H]1CCCN1)C(=O)O [H-Pro-Lys(Boc)-Phe-Ile-OH]							50%	

Now from value to compound, other results behind:

minimum inhibitory concentration (MIC) B. cereus ATCC 11778 ([1]; ATCC 11778, 18 h)	minimum inhibitory concentration (MIC) E. coli ATCC 11229 [2]	minimum inhibitory concentration (MIC) K. pneumonia ATCC 2357 [3]	minimum inhibitory concentration (MIC) S. aureus ATCC 6538 ([4]; ATCC 6538, 18 h)	minimum inhibitory concentration (MIC) C. albicans ATCC 10231 ([5]; ATCC 10231, 18 h)	minimum inhibitory concentration (MIC) T. mentagrophyte [6]	SMILES	ring closure, isolated yield [7]	other results
250 µg/mL (≈ 570 µM)	500 µg/mL (≈ 1140 µM)	500 µg/mL (≈ 1140 µM)	500 µg/mL (≈ 1140 µM)	>1000 µg/mL	500 µg/mL (≈ 1140 µM)	CC[C@H](C)[C@H](NC(=O)[C@@H]1CCCN1C(=O)[C@H](CC(C)C)NC(=O)[C@@H]1CCCN1)C(=O)O [PLPI] (H-PLPI-OH)		
125 µg/mL (≈ 266 µM)	125 µg/mL (≈ 266 µM)	250 µg/mL (≈ 531 µM)	500 µg/mL (≈ 1060 µM)	500 µg/mL (≈ 1060 µM)	250 µg/mL (≈ 531 µM)	CC[C@H](C)[C@@H]1NC(=O)[C@H](Cc2ccccc2)NC(=O)[C@H](CC(C)C)NC(=O)[C@@H]2CCCN2C1=O [c-PLFI, cyclo-(pro-leu-phe-ile)] (cyclo(PLFI))		
500 µg/mL (≈ 1130 µM)	500 µg/mL (≈ 1130 µM)	500 µg/mL (≈ 1130 µM)	>1000 µg/mL	>1000 µg/mL		CC[C@H](C)[C@H](NC(=O)[C@@H](NC(=O)[C@H](CC(C)C)NC(=O)[C@@H]1CCCN1)C(C)C)C(=O)O [PLVI] (H-PLVI-OH)		
500 µg/mL (≈ 1020 µM)	>1000 µg/mL	>1000 µg/mL	>1000 µg/mL	>1000 µg/mL		CC[C@H](C)[C@H](NC(=O)[C@H](Cc1ccccc1)NC(=O)[C@H](CC(C)C)NC(=O)[C@@H]1CCCN1)C(=O)O [PLFI] (H-PLFI-OH)		
250 µg/mL (≈ 496 µM)	250 µg/mL (≈ 496 µM)	500 µg/mL (≈ 993 µM)	250 µg/mL (≈ 496 µM)	250 µg/mL (≈ 496 µM)	500 µg/mL (≈ 993 µM)	CC[C@H](C)[C@H](NC(=O)[C@H](Cc1ccccc1)NC(=O)[C@H](CCCCN)NC(=O)[C@@H]1CCCN1)C(=O)O [PKFI] (H-PKFI-OH)		
	>1000 µg/mL	250 µg/mL (≈ 606 µM)	>1000 µg/mL	>1000 µg/mL		CC[C@H](C)[C@H](NC(=O)[C@H](C)NC(=O)[C@H](CC(C)C)NC(=O)[C@@H]1CCCN1)C(=O)O [PLAI] (H-PLAI-OH)		
125 µg/mL (≈ 305 µM)	62.50 µg/mL (≈ 153 µM)	250 µg/mL (≈ 610 µM)	125 µg/mL (≈ 305 µM)	125 µg/mL (≈ 305 µM)	125 µg/mL (≈ 305 µM)	CC[C@H](C)[C@@H]1NC(=O)[C@H](C)NC(=O)[C@H](CCCCN)NC(=O)[C@@H]2CCCN2C1=O [c-PKAI, cyclo-(pro-lys-ala-ile)] (cyclo(PKAI))		
125 µg/mL (≈ 296 µM)	125 µg/mL (≈ 296 µM)	250 µg/mL (≈ 592 µM)	500 µg/mL (≈ 1180 µM)	500 µg/mL (≈ 1180 µM)	62.50 µg/mL (≈ 148 µM)	CC[C@H](C)[C@@H]1NC(=O)[C@H](C(C)C)NC(=O)[C@H](CC(C)C)NC(=O)[C@@H]2CCCN2C1=O [c-PLVI, cyclo-(pro-leu-val-ile)] (cyclo(PLVI))		
	125 µg/mL (≈ 297 µM)	250 µg/mL (≈ 594 µM)	250 µg/mL (≈ 594 µM)	>1000 µg/mL		CC[C@H](C)[C@@H]1NC(=O)[C@@H]2CCCN2C(=O)[C@H](CC(C)C)NC(=O)[C@@H]2CCCN2C1=O [c-PLPI, cyclo(pro-leu-pro-ile)] (cyclo(PLPI))		
